Results: patent US10035796B2, “Crystalline forms of a BACE inhibitor, compositions, and their use” (Merck Sharp & Dohme Corp., priority 2014, dated 2018)

Legend:
[1] = Hygroscopicity by dynamic vapor sorption (DVS); format: physicochemical
Method: Hygroscopicity was evaluated by using a dynamic vapor sorption instrument (DVI). The experiment was performed under controlled temperature conditions with temperature set at 25° C. Following a drying step at 40° C. for 60 minutes, samples were subjected to water vapor starting from 5% relative humidity with stepwise increase up to 95% relative humidity in 5% increments. The desorption experiment was performed under the same conditions with a stepwise decrease in relative humidity. Maximum equilibrium time was held as 180 minutes with equilibrium criteria as 0.005 weight % in 5 min.

[2] = Single oral dose pharmacokinetic study in male rats; format: in vivo; conditions: male rats (n=4 per group), suspension in 4% hydroxypropyl methylcellulose, nominal dose 100 mg/kg, FIG. 5
Method: (FIG. 5). […] To generate the data shown in FIG. 5, a single oral dose pharmacokinetic study was conducted as a two-way parallel design in male rats (n=4 per group). For each form a suspension was prepared in 4% hydroxypropyl methylcellulose with nominal dose as 100 mg/kg.

Row | moisture uptake ([1]; ambient temperature, 95% relative humidity, DVS measurement) [weight %] | hygroscopicity according to the European Pharmacopeia classification ([1]; dynamic vapor sorption, 25° C.) | SMILES | crystalline form by PXRD after the vapor sorption analysis ([1]; after sorption/desorption between 5% and 95% relative humidity) | mean plasma concentration-time profile [2]
1 | 0.04 | non-hygroscopic | CN1C(=N)N[C@](C)(c2cc(NC(=O)c3ccc(F)cn3)ccc2F)CS1(=O)=O [Crystalline Anhydrous Form 1] | retain the identical Crystalline Anhydrous Form 1 | essentially identical to that of the corresponding amorphous HCl salt form
2 | – | – | CN1C(N)=NC(C)(c2cc(NC(=O)c3ccc(F)cn3)ccc2F)CS1(=O)=O.Cl (centres unmarked) [amorphous HCl salt form] | – | excellent
